Values quoted from earlier work, collected in US20010051164A1, “1-0 ALKYLGLYCEROLS FOR PHARMACEUTICAL OR VETERINARY USE FOR PRESERVING AND/OR IMPROVING SPERM” (priority 1996, published 2001).

System: spermatozoons of various animal species and of man

In the case of “1-O-alkyl-2-acetyl-sn-glycero-3-phosphocholine [PAF]”, the “power of fertilisation of ovocytes by treated spermatozoons” value (ovocytes of the rabbit and of the mouse) is given as “increases their power of fertilisation” and the “motor function of the spermatozoons” value (various animal species and man) is given as “increases the motor function”.
